From ChEMBL document CHEMBL1139489, “Design and NMR characterization of active analogues of compstatin containing non-natural amino acids” (J Med Chem, 2005) come the findings set out here.

pIC50: −log10 of the molar value. Positions of bridges follow the written chain, without caps; N, C: chain ends. Non-standard residues stand in square brackets, D forms with d. Residues, ends and D or L forms follow the SMILES beside them. Abu = CC[C@H](N)C(=O)O A value given as a limit tells only on which side of the number the result lay.

In this test the target is Complement C3 (Homo sapiens, UniProt P01024). As to the kind of experiment: Inhibitory concentration for human complement component C3 activation.
Sequence of Complement C3 (P01024 23-667 limits assumed): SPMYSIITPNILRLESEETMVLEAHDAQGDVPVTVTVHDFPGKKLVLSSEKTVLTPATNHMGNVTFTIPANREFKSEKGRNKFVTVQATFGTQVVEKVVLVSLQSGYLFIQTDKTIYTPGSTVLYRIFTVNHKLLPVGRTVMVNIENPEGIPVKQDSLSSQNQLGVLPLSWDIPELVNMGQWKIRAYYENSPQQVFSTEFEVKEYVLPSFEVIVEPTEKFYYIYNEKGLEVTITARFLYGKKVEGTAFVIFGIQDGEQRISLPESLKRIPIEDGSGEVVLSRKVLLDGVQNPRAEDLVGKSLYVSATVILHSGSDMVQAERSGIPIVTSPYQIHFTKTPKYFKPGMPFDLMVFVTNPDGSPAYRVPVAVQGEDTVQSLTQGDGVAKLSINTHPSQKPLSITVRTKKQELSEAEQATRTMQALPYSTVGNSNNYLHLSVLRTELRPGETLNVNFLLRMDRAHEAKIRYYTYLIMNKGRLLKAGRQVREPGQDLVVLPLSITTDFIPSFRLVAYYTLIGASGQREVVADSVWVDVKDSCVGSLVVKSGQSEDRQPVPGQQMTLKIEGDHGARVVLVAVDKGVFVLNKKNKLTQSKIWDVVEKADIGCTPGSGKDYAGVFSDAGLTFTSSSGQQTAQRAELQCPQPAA
Sequence of Complement C3 (P01024 672-1663 limits assumed): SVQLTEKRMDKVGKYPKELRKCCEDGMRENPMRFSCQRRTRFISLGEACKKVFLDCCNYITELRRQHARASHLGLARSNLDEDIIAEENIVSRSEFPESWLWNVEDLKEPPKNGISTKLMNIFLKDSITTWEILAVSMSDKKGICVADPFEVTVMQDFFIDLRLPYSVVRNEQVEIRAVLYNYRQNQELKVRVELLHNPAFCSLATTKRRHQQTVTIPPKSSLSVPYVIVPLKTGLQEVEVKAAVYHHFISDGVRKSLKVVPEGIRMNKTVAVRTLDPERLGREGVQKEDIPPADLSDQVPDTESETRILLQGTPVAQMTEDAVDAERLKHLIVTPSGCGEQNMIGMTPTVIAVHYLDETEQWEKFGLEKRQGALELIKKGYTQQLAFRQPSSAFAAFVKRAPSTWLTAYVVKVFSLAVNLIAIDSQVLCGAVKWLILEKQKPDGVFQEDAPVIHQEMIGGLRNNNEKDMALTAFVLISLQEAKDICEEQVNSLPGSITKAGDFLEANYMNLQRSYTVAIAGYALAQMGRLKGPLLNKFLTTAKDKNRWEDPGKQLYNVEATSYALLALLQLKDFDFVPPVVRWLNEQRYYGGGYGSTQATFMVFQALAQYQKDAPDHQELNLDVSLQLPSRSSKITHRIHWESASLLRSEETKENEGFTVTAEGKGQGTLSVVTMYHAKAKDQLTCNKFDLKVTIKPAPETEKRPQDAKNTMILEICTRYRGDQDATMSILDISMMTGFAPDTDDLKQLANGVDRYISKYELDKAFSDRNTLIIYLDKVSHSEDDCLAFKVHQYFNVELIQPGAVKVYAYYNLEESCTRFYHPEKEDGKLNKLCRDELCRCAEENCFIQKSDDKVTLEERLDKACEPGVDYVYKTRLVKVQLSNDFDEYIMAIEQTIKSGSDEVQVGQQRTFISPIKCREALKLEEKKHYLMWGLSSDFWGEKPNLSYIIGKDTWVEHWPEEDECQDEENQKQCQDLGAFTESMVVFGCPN

One may read the pIC50 as −log10 of the IC50, conventionally taken in molar units. Low readings indicate a high IC50, high ones a low IC50. On to `CC[C@H](C)[C@H](NC(C)=O)C(=O)N[C@H]1CSSC[C@@H](C(N)=O)NC(=O)[C@H](CCCN=C(N)N)NC(=O)[C@H](Cc2c[nH]cn2)NC(=O)[C@H](Cc2c[nH]cn2)NC(=O)CNC(=O)[C@@H](Cc2c[nH]c3ccccc23)NC(=O)[C@H](CC(=O)O)NC(=O)[C@H](CCC(N)=O)NC(=O)[C@H](C(C)C)NC(=O)[C@H](C(C)C)NC1=O`, for which the pIC50 is below 3.00.
For the compound `CC[C@H](C)[C@H](NC(C)=O)C(=O)N[C@H]1CSSC[C@@H](C(N)=O)NC(=O)[C@H](CCCNC(=N)N)NC(=O)[C@H](Cc2cnc[nH]2)NC(=O)[C@H](Cc2cnc[nH]2)NC(=O)CNC(=O)[C@H](Cc2c[nH]c3ccccc23)NC(=O)[C@@H](CC(=O)O)NC(=O)[C@H](CCC(N)=O)NC(=O)[C@H](C(C)C)NC(=O)[C@H](C(C)C)NC1=O`, the pIC50 was below 3.00.
Regarding `CC[C@H](C)[C@H](NC(C)=O)C(=O)N[C@H]1CSSC[C@@H](C(N)=O)NC(=O)[C@H](CCCN=C(N)N)NC(=O)[C@H](Cc2c[nH]cn2)NC(=O)[C@H](Cc2c[nH]cn2)NC(=O)CNC(=O)[C@H](Cc2c[nH]c3ccccc23)NC(=O)[C@H](CC(=O)O)NC(=O)[C@@H](CCC(N)=O)NC(=O)[C@H](C(C)C)NC(=O)[C@H](C(C)C)NC1=O`, the pIC50 is below 3.00.
`CC[C@@H]1NC(=O)CNC(=O)[C@H](Cc2c[nH]c3ccccc23)NC(=O)[C@H](CC(=O)O)NC(=O)[C@H](CCC(N)=O)NC(=O)[C@H](Cc2c[nH]c3ccccc23)NC(=O)[C@H](C(C)C)NC(=O)[C@@H](NC(=O)[C@@H](NC(C)=O)[C@@H](C)CC)CSSC[C@@H](C(=O)N[C@H](C(N)=O)[C@@H](C)O)NC(=O)[C@H](CCCN=C(N)N)NC(=O)[C@H](Cc2c[nH]cn2)NC1=O` (Ac-ICVWQDWG[Abu]HRCT-NH2; disulfide 2-12): the pIC50 is 5.82.
